Patent US11000525B2, “1-[2-(aminomethyl)benzyl]-2-thioxo-1,2,3,5-tetrahydro-4H-pyrrolo[3,2-d]pyrimidin-4-ones as inhibitors of myeloperoxidase” (AstraZeneca AB, priority 2014, dated 2021)
“Also recorded” adds a separate entry of the source.

Legend:
[1] = Plasma urate levels in healthy volunteers (clinical trials); assay type: in vivo, human; details: daily dose for 10 days, NCT00914303, FIG. 2
Experimental: Subjects received placebo or the indicated daily dose for 10 days, and the difference in plasma urate levels versus baseline was calculated. Each symbol represents one subject.

[2] = system: MPO purified from the human cell line HL60; experiment: MPO inhibition screen (Test A), ascorbate loss at 260 nm; assay type: biochemical; details: selectivity for MPO over TPO
Experimental: Methods for the determination of MPO inhibitory activity are disclosed in WO 02/090575. The pharmacological activity of compounds disclosed herein was tested in the following screen (Test A) in which the compounds were tested in the presence of ascorbate, which reacts with MPO-derived hypochlorous acid (HOCl) to form dehydro-ascorbate. The loss of ascorbate is followed by measuring absorbance at 260 nm.
Assay buffer: 100 μM diethyl triamine pentaacetic acid (DTPA) in buffer consisting of 10 mM Na2HPO4/NaH2PO4, 3 mM KCl in 140 mM NaCl, pH 7.4.
Enzyme solution: MPO purified from the human cell line HL60, 1.38 nM (final concentration 0.7 nM) and L-ascorbate, 100 μM (final concentration 50 μM) in Assay buffer
Absorbance was measured at 260 nm to obtain a compound blank value. After an additional 10 min, 40 μL of the substrate solution was added and the absorbance at 260 nm was recorded between 4 and 40 min to obtain kinetic readings of enzyme activity.

Compound	Reduction of plasma urate (uric acid) levels versus baseline [1]	IC50 (TPO)/IC50 (MPO) [2]
CC(C)OCCn1c(=S)[nH]c(=O)c2[nH]ccc21 [AZD3241]	dose-dependent reduction of uric acid; also recorded: dose-dependently reduced urate levels	–
O=c1[nH]c(=S)n(Cc2ccccc2CNC2CCC2)c2cc[nH]c12 [Example 10, 1-{2-[(Cyclobutylamino)methyl]benzyl}-2-thioxo-1,2,3,5-tetrahydro-4H-pyrrolo[3,2-d]pyrimidin-4-one]	–	1100
